Like-named read-outs stand apart in the source and are kept apart here.
Assays:
Assay type in all cases: cell-based
[1] = system: T47D cells expressing mutant PI3Ka (H1047R); assay: In vitro cell proliferation, T47D cells (CellTiter-Glo); details: inhibition of proliferation, read-out: Avg T-47D EC50
Summary of the method: (§1)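 T47D (PI3Kα H1047R; RPMI, 10% FBS, insulin 0.2 units/mL) or SKBR3 (WT PI3Kα; McCoys 5a, 10% FBS) cells seeded at 1,500 cells/well on 10-point compound dilutions, grown 72 h at 37 °C. CellTiter-Glo luminescence; inhibition normalised to 0.1% DMSO and 10 uM alpelisib, EC50 from four-parameter fit.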

[2] = system: SKBR3 cells express WT PI3Ka; assay: In vitro cell proliferation, SKBR3 cells (CellTiter-Glo); details: inhibition of proliferation
Summary of the method: as §1

[3] = system: phosphorylation of AKT (pAKT) in T47D cells expressing mutant PI3Ka (H1047R); assay: In vitro cell pAKT (Ser473) HTRF, T47D cells; details: cellular pAKT, T47D cells, mutant PI3Ka (H1047R), 6 hours, read-out: Avg T-47D IC50
Summary of the method: (§2)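 T47D cells (RPMI, 10% FBS, 0.2 units/mL insulin) or SKBR3 cells (McCoy's 5a, 10% FBS) were seeded onto 10-point compound dilutions and incubated 6 h at 37 °C. After lysis, pAKT was detected overnight by HTRF (Eu cryptate/d2). IC50 was fitted from % inhibition relative to 0.1% DMSO and 10 uM alpelisib controls.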

[4] = system: phosphorylation of AKT (pAKT) in SKBR3 cells express WT PI3Ka; assay: In vitro cell pAKT (Ser473) HTRF, SKBR3 cells; details: cellular pAKT
Summary of the method: as §2

Compound | EC50 ([1]; Homo sapiens, T47D, 72 h) [nM] | EC50 ([2]; Homo sapiens, SK-BR-3, 72 h) [nM] | IC50 ([3]; Homo sapiens, T47D, 6 h) [nM] | IC50 ([4]; Homo sapiens, SK-BR-3, 6 h) [nM] | EC50 ([1]; 72 hours) [nM] | EC50 ([2]; 72 hours) [nM] | IC50 [3] [nM] | IC50 ([4]; 6 hours) [nM]
Cc1cc([C@@H](C)Nc2ccccc2C(=O)O)c2cc(C3C[C@H]3C3CC3)n(C)c(=O)c2c1 (some centres unmarked) [Example 303] | 1 to 500 | > 15000 | 1 to 500 | > 15000 |  |  |  | 
COC[C@@H]1CC1c1cc2c([C@@H](C)Nc3ccccc3C(=O)O)cc(C)cc2c(=O)n1C (some centres unmarked) [Example 304] | 1 to 500 | > 15000 | 1 to 500 | > 15000 |  |  |  | 
Cc1cc([C@@H](C)Nc2ccccc2C(=O)O)c2cc(C3C[C@H]3C)n(C)c(=O)c2c1 (some centres unmarked) [Example 305] | 1 to 500 | > 15000 | 1 to 500 | > 15000 |  |  |  | 
Cc1cc([C@@H](C)Nc2ccccc2C(=O)O)c2cc(C3C[C@H]3C(C)C)n(C)c(=O)c2c1 (some centres unmarked) [Example 306] | 1 to 500 | > 15000 | 1 to 500 | > 15000 |  |  |  | 
Cc1cc([C@@H](C)Nc2ccccc2C(=O)O)c2cc(-c3cnc(C4CC4)nc3)n(C)c(=O)c2c1 [Example 307] | 1 to 500 | > 15000 | 1 to 500 | > 15000 |  |  |  | 
C[C@@H](Nc1ccccc1C(=O)O)c1cc(F)cc2c(=O)n(C)c(N3CCN(CC(F)(F)F)CC3)cc12 [Example 316] | 1 to 500 | > 15000 | 1 to 500 | > 15000 |  |  |  | 
Cc1cc([C@@H](C)Nc2ccccc2C(=O)O)c2cc(-c3cnc(C(C)(F)F)nc3)n(C)c(=O)c2c1 [Example 317] | 1 to 500 | > 15000 | 1 to 500 | > 15000 |  |  |  | 
Cc1cc([C@@H](C)Nc2cccc(F)c2C(=O)O)c2cc(-c3cnc(C(C)C)nc3)n(C)c(=O)c2c1 [Example 319] | 1 to 500 | > 15000 | 1 to 500 | > 15000 |  |  |  | 
Cc1cc([C@@H](C)Nc2cccc(F)c2C(=O)O)c2cc(C3CC3)n(C)c(=O)c2c1 [Example 320] | 1 to 500 | > 15000 | 1 to 500 | > 15000 |  |  |  | 
Cc1cc([C@@H](C)Nc2ccccc2C(=O)O)c2cc(C34CC(c5ccc(F)cc5)(C3)C4)n(C)c(=O)c2c1 [Example 321] |  |  |  |  | 1 to 500 | > 15000 | 1 to 500 | 2000 to 15000
Cc1ncc(F)cc1-c1ncc(-c2cc3c([C@@H](C)Nc4ccccc4C(=O)O)cc(F)cc3c(=O)n2C)cc1F [Example 323] | 1 to 500 | 2000 to 15000 | 1 to 500 | 2000 to 15000 |  |  |  | 
C[C@@H](Nc1ccccc1C(=O)O)c1cc(F)cc2c(=O)n(C)c(-c3cnc(-c4ccc(F)cc4)nc3)cc12 [Example 324] |  |  |  |  | 1 to 500 | 2000 to 15000 | 1 to 500 | > 15000
Cc1cc([C@@H](C)Nc2cccc(F)c2C(=O)O)c2cc(N3CCN(c4cncnc4C)CC3)n(C)c(=O)c2c1 [Example 325] |  |  |  |  | 1 to 500 | 2000 to 15000 | 500 to 2000 | 2000 to 15000
Cc1cc([C@@H](C)Nc2cccc(F)c2C(=O)O)c2cc(-c3ccc(C(C)(C)F)nc3)n(C)c(=O)c2c1 [Example 326] | 1 to 500 | > 15000 | 1 to 500 | > 15000 |  |  |  | 
Cc1cc([C@@H](C)Nc2ccc(Cl)c(F)c2C(=O)O)c2cc(N3CCN(CC(F)(F)F)CC3)n(C)c(=O)c2c1 [Example 327] |  |  |  |  | 500 to 2000 | > 15000 | 500 to 2000 | 2000 to 15000
Cc1cc([C@@H](C)Nc2cccc(F)c2C(=O)O)c2cc(N3CCN(c4cc(C)ncn4)CC3)n(C)c(=O)c2c1 [Example 328] | 500 to 2000 | 2000 to 15000 | 500 to 2000 | > 15000 |  |  |  | 

Compound | EC50 ([1]; Homo sapiens, T47D, 72 h) [nM] | EC50 ([2]; Homo sapiens, SK-BR-3, 72 h) [nM] | IC50 ([3]; Homo sapiens, T47D, 6 h) [nM] | IC50 ([4]; Homo sapiens, SK-BR-3, 6 h) [nM] | EC50 ([1]; 72 hours) [nM] | EC50 ([2]; 72 hours) [nM] | IC50 [3] [nM] | IC50 ([4]; 6 hours) [nM]
Cc1cc([C@@H](C)Nc2ccc(Cl)nc2C(=O)O)c2cc(-c3cnc(C(C)C)nc3)n(C)c(=O)c2c1 [Example 329] | 1 to 500 | 2000 to 15000 | 1 to 500 | 2000 to 15000 |  |  |  | 
Cc1cc([C@@H](C)Nc2ccccc2C(=O)O)c2cc(-c3ccc4c(c3)OC(F)(F)O4)n(C)c(=O)c2c1 [Example 330] | 500 to 2000 | > 15000 | 1 to 500 | > 15000 |  |  |  | 
Cc1cc([C@@H](C)Nc2ccccc2C(=O)O)c2cc(-c3ccc(C4(C#N)CC4)nc3)n(C)c(=O)c2c1 [Example 331] | 1 to 500 | > 15000 | 1 to 500 | > 15000 |  |  |  | 
Cc1cc([C@@H](C)Nc2ccccc2C(=O)O)c2cc(OCC(F)(F)F)n(C)c(=O)c2c1 [Example 332] | 500 to 2000 | > 15000 | 1 to 500 | > 15000 |  |  |  | 
Cc1cc([C@@H](C)Nc2ccccc2C(=O)O)c2cc(OCC3(C)CC3)n(C)c(=O)c2c1 [Example 333] | 1 to 500 | > 15000 | 1 to 500 | > 15000 |  |  |  | 
Cc1cc([C@@H](C)Nc2ccccc2C(=O)O)c2cc(OCc3ccc(C)nc3)n(C)c(=O)c2c1 [Example 334] | 1 to 500 | > 15000 | 1 to 500 | > 15000 |  |  |  | 
Cc1cc([C@@H](C)Nc2ccccc2C(=O)O)c2cc(OCc3ccccn3)n(C)c(=O)c2c1 [Example 335] | 500 to 2000 | > 15000 | 1 to 500 | > 15000 |  |  |  | 
Cc1cc([C@@H](C)Nc2ccc(Cl)nc2C(=O)O)c2cc(N3CCN(CC(F)(F)F)CC3)n(C)c(=O)c2c1 [Example 336] | 1 to 500 | 2000 to 15000 | 1 to 500 | 2000 to 15000 |  |  |  | 
CC(C)c1ncc(-c2cc3c([C@@H](C)Nc4ccccc4C(=O)O)cc(Cl)cc3c(=O)n2C)cn1 [Example 337] | 1 to 500 | > 15000 | 1 to 500 | > 15000 |  |  |  | 
Cc1cc([C@@H](C)Nc2ccccc2C(=O)O)c2cc(-c3cccc(C(F)F)n3)n(C)c(=O)c2c1 [Example 338] | 1 to 500 | 2000 to 15000 | 1 to 500 | > 15000 |  |  |  | 
Cc1cc([C@@H](C)Nc2ccccc2C(=O)O)c2cc(OC3CC3)n(C)c(=O)c2c1 [Example 339] | 500 to 2000 | > 15000 | 1 to 500 | > 15000 |  |  |  | 
Cc1cc([C@@H](C)Nc2ccccc2C(=O)O)c2cc(N3CCN(c4nccs4)CC3)n(C)c(=O)c2c1 [Example 340] | 1 to 500 | > 15000 | 1 to 500 | 2000 to 15000 |  |  |  | 
Cc1cc([C@@H](C)Nc2ccccc2C(=O)O)c2cc(-c3cnc(C(F)F)nc3)n(C)c(=O)c2c1 [Example 341] | 1 to 500 | > 15000 | 1 to 500 | > 15000 |  |  |  | 
Cc1cc([C@@H](C)Nc2ccccc2C(=O)O)c2cc(OCc3ccnc(C)c3)n(C)c(=O)c2c1 [Example 342] | 1 to 500 | > 15000 | 1 to 500 | > 15000 |  |  |  | 
Cc1cc([C@@H](C)Nc2cccc(F)c2C(=O)O)c2cc(N3CCN(c4ccc(C)nc4C)CC3)n(C)c(=O)c2c1 [Example 343] | 1 to 500 | 2000 to 15000 | 1 to 500 | 2000 to 15000 |  |  |  | 
C[C@@H](Nc1ccccc1C(=O)O)c1cc(F)cc2c(=O)n(C)c(-c3cnc(C4CC4)s3)cc12 [Example 344] | 1 to 500 | > 15000 | 1 to 500 | > 15000 |  |  |  | 

Source: patent publication US20260078103A1, “ISOQUINOLONES AS PI3K INHIBITORS” (OnKure, Inc., priority 2022, published 2026)
